As usually defined, the IC50 is the concentration that gives 50% inhibition.

Assay [1] relates to A-549 human lung cancer cells. The assay can be described thus: Antitumor activity in the nude mouse tumor xenograft model (A-549). The conditions noted are these: A-549 s.c. xenograft in nude mice; for inhibition of A-549 tumor growth: 28-34 days, versus vehicle; for average tumor size: over a period of 28-34 days, vehicle about 600 mm^3, s.c. osmotic mini-pumps. It is filed as in vivo. The source says:
Antitumor activity in the nude mouse tumor xenograft model—Nude mice (Charles River, Wilmington, Mass.) were maintained in accordance with the Institutional Animal Care and Use Committee (IACUC) procedures and guidelines. A-549 cells were harvested, resuspended in PBS and injected s.c. into the right and left flank (7×10^6 cells per flank) of 8 week old female nude mice as reported previously (1, 2). When tumors reached 50 to 100 mm^3, animals either were implanted s.c. with 2-week osmotic mini-pumps (Alzet 2002, Alzet, Palo Alto, Calif.). The mini-pumps were implanted on the right flank and the tumor cells on the left flank. Control animals received a saline vehicle whereas treated animals were injected with either vehicle, GGTI-2154, GGTI-2418, GGTI-2432 and GGTI-2430. The tumor volumes were determined by measuring the length (l) and the width (w) and calculating the volume (V=lw^2/2) as described previously (30, 31).

For assay [2], the system named is Rap1A processing by GGTase-I. The assay is described as follows: Inhibition of Rap1A processing (geranylgeranylation) in oncogenic H-Ras-transformed NIH 3T3 cells, immunoblot. The assay is classed as cell-based. Conditions: read-out: IC50, block of Rap1A processing by GGTase-I. Here is the method: (§1) The in vitro inhibition assays of GGTase-1 and FTase were carried out by measuring the [^3H]GGPP and [^3H]FPP incorporated into H-Ras-CVLL and H-Ras-CVLS, respectively, as previously described.^27 The in vivo inhibition of geranylgeranylation and farnesylation was determined based on the level of inhibition of Rap1A and H-Ras processing, respectively.^10 Briefly, oncogenic H-Ras-transformed NIH 3T3 cells were treated with various concentrations of inhibitors, and the cell lysates were separated on 12.5% SDS-PAGE. The separated proteins were transferred to nitrocellulose and immunoblotted using an anti-Ras antibody (Y13-258) or an anti-Rap1A antibody (SC-65). Antibody reactions were visualized using either peroxidase-conjugated goat anti-rat IgG or goat anti-rabbit IgG and an enhanced chemiluminescence detection system. The results of those assays appear in Table 1 (FIG. 9), Table 2 (FIG. 10) and Table 3 (FIG. 11).
(Immunoblotting shows a protein as a band on a membrane.)

The target of a further assay is GGTase-I (Homo sapiens, UniProt P49354+P53609). The assay is described as follows: In vitro GGTase-I inhibition ([3H]GGPP incorporation into H-Ras-CVLL). The assay is classed as biochemical. Conditions: Table 3, FIG. 11. As to the method:
as §1

With `Cc1ccccc1-c1cc(NCc2cnc[nH]2)ccc1C(=O)N[C@@H](CC(C)C)C(=O)O` [GGTI-2154, reference compound], in assay [1], the “inhibition of A-549 tumor growth” value is on record as 66% and the average tumor size is recorded as 250 mm^3.
As to `COC(=O)[C@H](CC(C)C)NC(=O)N1CCN(Cc2nc[nH]c2C)C(=O)[C@@H]1Cc1ccccc1` [GGTI-2417], the IC50 in assay [2] amounted to 300 nM.
As for `Cc1nc[nH]c1CN1CCN(C(=O)N[C@@H](CC(C)C)C(=O)O)[C@@H](Cc2ccccc2)C1=O` [GGTI-2418], on GGTase-I, the “inhibition of GGTase-I (activity in words)” value was “exceptional activity”. Also, in assay [1], the “inhibition of A-549 tumor growth” value stood at 57% and the average tumor size stood at 280 mm^3.

The record behind these values is US7763620B2, “Piperazinone compounds as anti-tumor and anti-cancer agents and methods of treatment” (Yale University, priority 2001, dated 2010).
